Measured values as given in patent publication US20220387414A1, “TREATING LIVER DISORDERS” (Terns Pharmaceuticals Inc., priority 2019, published 2022).
“And” between values parts separate entries of the source, which are not always exact repeats. Equal entries are not always repeated.

What was measured:
[1] = PK profile after oral dosing in monkeys; assay type: in vivo; conditions: cynomolgus monkeys, oral 1 mg/kg for 7 consecutive days
Procedure: (§1) The pharmacodynamics were measured as a function of 7-alpha-hydroxy-4-cholesten-3-one (7α-C4) reduction (FIG. 4), as quantified by LC-MS/MS. Pharmacokinetics data is presented in Table 3, and were determined by non-compartmental analysis.

[2] = tested on: differentially expressed genes and pathways in liver; test: RNAseq of liver after single oral dose; conditions: mice liver, 6 hours; for number of differentially expressed genes modulated vs vehicle: fold change≥1.5, q-value<0.05; for number of global pathways enriched: p<0.05
Procedure: For RNAseq analysis, mRNA was extracted from total liver and sequenced using standard Illumina library preparation and sequencing protocols. Differentially expressed genes (DEG) were determined using RSEM and edgeR software packages and analyzed using Advaita Bio's iPathwayGuide software.

[3] = Clinical 7-day study, serum exposure of Compound I; assay type: in vivo, human; conditions: healthy subjects, each 24-hour dosing period, all dosed groups
Text: (§2) Second Study. […] 10-14, 2019.
(§3) Serum levels of Compound I in the subjects were periodically measured.

[4] = tested on: FXR-regulated, inflammatory and fibrosis gene expression in the liver; test: Liver gene expression in NASH mouse model (RT-qPCR, RNA-seq); assay type: in vivo, C57/BL6J mice; conditions: 10, 30, or 100 mg/kg daily oral, 28 days
[5] = Pharmacokinetics assay, IV and oral, monkey; assay type: in vivo, cynomolgus monkeys; conditions: plasma; Cynomolgus Monkey, oral 5 mg/kg, IV 0.3 mg/kg
Text: Results are shown in FIG. 1A (IV administration) and FIG. 1B (oral administration), and in Table 2. […] Smaller Vdss in monkeys is correlated with higher plasma protein binding.

[6] = tested on: FXR-regulated gene expression in liver and ileum; test: RT-qPCR of FXR-regulated gene expression in liver and ileum after single oral dose; assay type: in vivo; conditions: mice, single oral dose 10 mg/kg, 6 hours after dose
Text: For RT-qPCR, gene-specific primers were used to quantitate FXR-regulated gene expression in liver and ileum using the 2-ddCT method. Results are shown in FIG. 6 (data presented as mean±SEM; **** indicates p<0.0001 and * indicates p<0.05 versus vehicle, with statistics determined by one-way ANOVA followed by Tukey).

[7] = In vitro metabolic stability in cryopreserved hepatocytes (human); assay type: in vitro ADME; conditions: 0.5×10^6 cells/mL, 37° C.
Text: (§4) 283, no. 1, pp. 46-58 (1997).

[8] = tested on: 7-alpha-hydroxy-4-cholesten-3-one (7α-C4); test: Clinical 7-day study, serum 7α-C4 suppression; assay type: in vivo, human; conditions: healthy subjects; for maximum suppression of serum 7α-C4 levels (reduction): Day 7, six hours after dosing
Procedure: as §2
Serum levels of 7-alpha-hydroxy-4-cholesten-3-one (7α-C4) in the subjects were periodically measured. FIGS. 16A and 16B show changes of mean serum levels of 7α-C4 from the pre-dose baseline in different dosing groups on Day 1 and Day 7, respectively. […] On Day 7, maximum suppression of serum 7α-C4 levels was observed six hours after dosing corresponding to a reduction of 74%, 82%, and 91% in the 25, 75, and 150 mg dosing groups, respectively.

[9] = Tissue distribution of radiolabeled (14C) Compound I after oral dose; assay type: in vivo; conditions: Long-Evans rats, oral 5 mg/kg (100 μCi/kg), up to 168 hours
[10] = Clinical 7-day study, safety and pruritus; assay type: in vivo, human; conditions: healthy volunteers
Procedure: as §2
Safety was assessed during dosing and for 10 (±1) days after dosing.

[11] = In vitro metabolic stability in cryopreserved hepatocytes (rat); assay type: in vitro ADME; conditions: Sprague-Dawley Rat hepatocytes, 0.5×10^6 cells/mL, 37° C.
Text: as §4

[12] = In vitro metabolic stability in cryopreserved hepatocytes (mouse); assay type: in vitro ADME; conditions: 0.5×10^6 cells/mL, 37° C.
Text: as §4

FGF-19 = test: Clinical 7-day study, serum FGF-19; assay type: in vivo, human; conditions: healthy subjects, four hours after dosing on Day 7; dosing groups not assigned in the text
Text: as §3
Serum levels of FGF-19 in the subjects were periodically measured. FIGS. 17A and 17B show changes of mean serum levels of FGF-19 from the pre-dose baseline in different dosing groups on Day 1 and Day 7, respectively.

[13] = tested on: NASH induced by a high fat diet in combination with CCl4; test: Mouse model of NASH (high fat diet in combination with CCl4); assay type: in vivo, C57/BL6J mice; conditions: 28 days
Procedure: Hematoxylin & Eosin (H&E) and Sirius Red histological staining of liver tissue was used to quantitate NAFLD activity score (NAS), steatosis, ballooning, inflammation and fibrosis.
NAS is calculated based upon liver steatosis, inflammation, and ballooning and was determined by analysis of liver tissue histology using H&E stain. Specifically, inflammation score was calculated based upon H&E staining: Score 0, none; 1, <2 foci per 200X field; 2, 2-4 foci per 200X field; 3, >4 foci per 200X field. […] Hepatocellular ballooning is a form of liver cell injury associated with cell swelling and is also measured by H&E stained liver sections. The ballooning score is calculated as follows: 0-no hepatocyte ballooning; 1-few ballooning hepatocytes; 2-many hepatocytes with prominent ballooning.
Liver fibrosis was quantified by histological analysis of the percentage of Sirius Red-positive liver sections.

[14] = Clinical 7-day study, serum LDL; assay type: in vivo, human; conditions: healthy subjects, 25, 75, or 150 mg QD for 7 days
Text: as §3
Serum levels of low-density lipoprotein (LDL) in the subjects were periodically measured.

[15] = In vitro metabolic stability in cryopreserved hepatocytes (monkey); assay type: in vitro ADME; conditions: Cynomolgus Monkey hepatocytes, 0.5×10^6 cells/mL, 37° C.
Text: as §4

[16] = In vitro metabolic stability in cryopreserved hepatocytes (dog); assay type: in vitro ADME; conditions: Beagle Dog hepatocytes, 0.5×10^6 cells/mL, 37° C.
Text: as §4

[17] = tested on: 7-alpha-hydroxy-4-cholesten-3-one (7α-C4); test: PD profile (7α-C4 reduction) after oral dosing in monkeys; assay type: in vivo; conditions: cynomolgus monkeys, oral 1 mg/kg for 7 consecutive days
Procedure: as §1

[18] = longer term studies; cited from earlier work
[19] = 10, 30, and 100 mg/kg daily oral
[20] = 10, 30, or 100 mg/kg daily oral

SMILES: Cn1cc(C(=O)O)c2ccc(N3CCC(OCc4c(-c5c(Cl)cccc5Cl)noc4C4CC4)CC3)cc21 [Compound I, 6-{4-[5-cyclopropyl-3-(2,6-dichloro-phenyl)-isoxazol-4-ylmethoxy]-piperidin-1-yl}-1-methyl-1H-indole-3-carboxylic acid]
- plasma exposure on day 1 and day 7 [1]: comparable
- number of differentially expressed genes modulated vs vehicle ([2]; single oral 10 mg/kg): 500 genes
- number of global pathways enriched ([2]; single oral 10 mg/kg): 32 pathways
- mean serum levels of Compound I versus its EC50 [3]: generally did not exceed the EC50
- collagen, type 1, alpha 1 expression in the liver compared to control NASH mice [4]: decreased
- bioavailability [5]: 18%
- induction of FXR-specific genes (liver SHP1, liver OSTb, ileum SHP1, ileum FGF15) [6]: preferentially induces FXR-specific genes in the liver
- half-life at 1 µM [7]: 1.4 ± 0.108 h
- maximum suppression of serum 7α-C4 levels (reduction) ([8]; 25 mg QD): 74%
- maximum suppression of serum 7α-C4 levels (reduction) ([8]; 75 mg QD): 82%
- maximum suppression of serum 7α-C4 levels (reduction) ([8]; 150 mg QD): 91%
- suppression of serum 7α-C4 levels after a single dose ([8]; Day 1, all dosed groups (25, 75, 150 mg)): partial suppression
- tissues with the most radioactive material [9]: Liver, small intestine, and cecum
- reports of pruritus ([10]; all doses (25, 75, 150 mg QD for 7 days)): no reports of pruritus
- safety and tolerability ([10]; all doses, during dosing and for 10 (±1) days after): safe and well tolerated
- half-life at 1 µM [11]: 2.18 ± 0.0685 h
- half-life at 1 µM [12]: 0.727 ± 0.0472 h
- maximum increases from baseline in serum FGF 19 levels (FGF-19): 718% and 486% and 454%
- ballooning score compared to untreated NASH mice [13, 19]: significantly reduced
- inflammation score compared to untreated NASH mice [13, 19]: significantly reduced
- steatosis score compared to untreated NASH mice [13, 19]: significantly reduced
- NAFLD Activity Score (NAS) compared to untreated NASH mice [13, 20]: significantly lower
- liver fibrosis (Sirius Red-positive area) compared to untreated NASH control [13, 20]: statistically significant reduced fibrosis
- serum LDL changes above baseline [14]: minimal
- half-life at 1 µM [15]: 1.06 ± 0.013 h
- half-life at 1 µM [16]: 2.1 ± 0.258 h
- suppression of the pharmacodynamics biomarker 7α-C4 [17]: sustained suppression

SMILES: CC[C@H]1[C@@H](O)[C@@H]2[C@H](CC[C@]3(C)[C@@H]([C@H](C)CCC(=O)O)CC[C@@H]23)[C@@]2(C)CC[C@@H](O)C[C@@H]12 [OCA, obeticholic acid, reference compound]
- pruritus [18]: known to result in pruritus
- number of differentially expressed genes modulated vs vehicle ([2]; single oral 30 mg/kg): 44 genes
- number of global pathways enriched ([2]; single oral 30 mg/kg): 6 pathways

SMILES: O=C(O)c1ccnc(N2CC(O)(c3ccc(OCc4c(-c5c(Cl)cccc5Cl)noc4C4CC4)cc3Cl)C2)c1 [cilofexor]
- pruritus [18]: known to result in pruritus

SMILES: O=C(O)c1cc(F)c2nc(N3[C@@H]4CC[C@H]3C[C@@H](OCc3c(-c5ccccc5OC(F)(F)F)noc3C3CC3)C4)sc2c1 [tropifexor]
- pruritus [18]: known to result in pruritus
